{"source": "patent US20220249441A1", "about": "“Homodimeric Tobramycin Adjuvant Repurposes Novobiocin as an Effective Antibacterial Agent Against Gram-Negative Bacteria” (priority 2019, published 2022)", "assay_in_all_cases": "Checkerboard assay (antibiotic + adjuvant combination MIC)", "key": {"[1]": {"system": "P. aeruginosa", "format": "cell-based, Pseudomonas aeruginosa", "conditions": "PMBN or 1 at 7.1 μM", "method": "(§1) Antimicrobial Susceptibility Assay. The in vitro antimicrobial activity of all compounds/antibiotics against a panel of bacteria was evaluated by microbroth dilution method in accordance with the Clinical and Laboratory Standards Institute (CLSI) guidelines (using ATCC strains as quality control strains) (54). Overnight grown bacterial cultures were diluted in saline to achieve a 0.5 McFarland turbidity, followed by 1:50 dilution in Mueller-Hinton broth (MHB) for inoculation to a final concentration of approximately 5×10^5 CFU/mL. […] The lowest concentration that prevented the visible growth of bacteria was defined as the MIC for each antimicrobial agent. The broth with or without bacterial cells was used as positive or negative control, respectively.\n(§2) Checkerboard Assay. Combination studies with different antibiotics were performed in 96-well plates as previously described (19). Briefly, the antibiotic of interest was serially diluted in MHB along the abscissa while the adjuvant (tobramycin homodimer) was serially diluted in MHB along the ordinate. This creates a 10×7 matrices wherein each well consists of a combination of different antibiotic and adjuvant concentrations. Overnight grown bacterial cultures were diluted in saline to achieve a 0.5 McFarland turbidity, followed by 1:50 dilution in Mueller-Hinton broth (MHB) for inoculation to a final concentration of approximately 5×10^5 CFU/mL. […] MIC was recorded as wells with the lowest concentration of drugs with no bacterial growth. The fractional inhibitory concentration (FIC) for each antibiotic was calculated by dividing the MIC of the antibiotic in the presence of adjuvant by the MIC of the antibiotic alone. Similarly, the FIC of adjuvant was calculated by dividing the MIC of the adjuvant in the presence of antibiotic by the MIC of the adjuvant alone. FIC index is the sum of both FICs. FIC indices of ≤0.5 were deemed synergistic; >0.5-4, no interaction; and >4, antagonistic."}, "[2]": {"system": "K. pneumoniae", "format": "cell-based, Klebsiella pneumoniae", "conditions": "KP 113254; PMBN or 1 at 7.1 μM", "method": "as §1, §2"}, "[3]": {"system": "E. coli", "format": "cell-based, Escherichia coli", "conditions": "PMBN or 1 at 7.1 μM", "method": "as §1, §2"}, "[4]": {"system": "E. cloacae", "format": "cell-based, Enterobacter cloacae", "conditions": "EC 118568; PMBN or 1 at 7.1 μM", "method": "as §1, §2"}, "[5]": {"system": "A. baumannii", "format": "cell-based, Acinetobacter baumannii", "method": "as §1, §2"}}}
{"substance": "polymyxin B nonapeptide [PMBN, reference compound]", "values": [{"measurement": "MIC of Novobiocin + adjuvant (7.1 μM)", "setting": "[1]; PA 91433", "result": 4, "unit": "µg/mL"}, {"measurement": "MIC of Novobiocin + adjuvant (7.1 μM)", "setting": "[1]; PA 101243", "result": 8, "unit": "µg/mL"}, {"measurement": "MIC of Novobiocin + adjuvant (7.1 μM)", "setting": "[1]; PA 114228", "result": 128, "unit": "µg/mL"}, {"measurement": "MIC of Novobiocin + adjuvant (7.1 μM)", "setting": "[1]; PAO1", "result": 4, "unit": "µg/mL"}, {"measurement": "MIC of Novobiocin + adjuvant (7.1 μM)", "setting": "[2]", "result": 64, "unit": "µg/mL"}, {"measurement": "MIC of Novobiocin + adjuvant (7.1 μM)", "setting": "[3]; E. coli 94393", "result": 4, "unit": "µg/mL"}, {"measurement": "MIC of Novobiocin + adjuvant (7.1 μM)", "setting": "[3]; E. coli 94474", "result": 32, "unit": "µg/mL"}, {"measurement": "MIC of Novobiocin + adjuvant (7.1 μM)", "setting": "[4]", "result": 512, "unit": "µg/mL"}, {"measurement": "MIC of Novobiocin + adjuvant (7.1 μM)", "setting": "[5]; AB 92247, PMBN or 1 at 7.1 μM", "result": 1, "unit": "µg/mL"}, {"measurement": "potentiation of novobiocin", "setting": "[5]; colistin-resistant mutant B of A. baumannii ATCC 17978", "result": "did not potentiate"}]}
